# Measured values: US6576430B1, “Detection of ligands by refractive surface methods” (Becton, Dickinson and Company, priority 2000, dated 2003)
# Legend:
# MBP = molecular target: T1, MBP (Escherichia coli, UniProt P0AEX9); assay: SPR (BIACORE) detection of maltose binding to immobilized MBP
# T1 construct: made in house
# Method: MBP was prepared from osmotic shock lysates and coupled to a CM5 (carboxymethyl dextran) chip (BIACORE) using standard EDC/NHS procedures performed with reagents from the BIACORE EDC/NHS coupling kit. MBP was 10 μM at pH 4.5 in 10 mM NaOAc. Hepes Buffered Saline-EP (HBS-EP: 0.01 M HEPES pH 7.4, 0.15 M NaCl, 3 mM EDTA, 0.005% surfactant P20; BIACORE™ AB) was used as an eluent (O'Shannessy et al., 1992) supplemented with 5 mM CaCl2. Ethanolamine (1.0 M, pH 8.0) was used to quench unreacted esters and was also found to be effective at removing non-covalently adsorbed protein from the chip surface. […] Report points were collected at 100 seconds post injection. Report points from injections over a blank surface were subtracted. Data points were discarded for data collected during obvious anomalies, such as air bubbles. Running buffer was HBS-EPA (BIACORE) supplemented with 5 mM CaCl2.
# After regeneration the surface was allowed to stabilize for 300 seconds before additional ligand injections.
# tTG = molecular target: T2, tTG (Homo sapiens, UniProt P21980); details: reported value; read-out: reported Kd of calcium for the protein; cited from earlier work
# T2 sequence (P21980 1-687): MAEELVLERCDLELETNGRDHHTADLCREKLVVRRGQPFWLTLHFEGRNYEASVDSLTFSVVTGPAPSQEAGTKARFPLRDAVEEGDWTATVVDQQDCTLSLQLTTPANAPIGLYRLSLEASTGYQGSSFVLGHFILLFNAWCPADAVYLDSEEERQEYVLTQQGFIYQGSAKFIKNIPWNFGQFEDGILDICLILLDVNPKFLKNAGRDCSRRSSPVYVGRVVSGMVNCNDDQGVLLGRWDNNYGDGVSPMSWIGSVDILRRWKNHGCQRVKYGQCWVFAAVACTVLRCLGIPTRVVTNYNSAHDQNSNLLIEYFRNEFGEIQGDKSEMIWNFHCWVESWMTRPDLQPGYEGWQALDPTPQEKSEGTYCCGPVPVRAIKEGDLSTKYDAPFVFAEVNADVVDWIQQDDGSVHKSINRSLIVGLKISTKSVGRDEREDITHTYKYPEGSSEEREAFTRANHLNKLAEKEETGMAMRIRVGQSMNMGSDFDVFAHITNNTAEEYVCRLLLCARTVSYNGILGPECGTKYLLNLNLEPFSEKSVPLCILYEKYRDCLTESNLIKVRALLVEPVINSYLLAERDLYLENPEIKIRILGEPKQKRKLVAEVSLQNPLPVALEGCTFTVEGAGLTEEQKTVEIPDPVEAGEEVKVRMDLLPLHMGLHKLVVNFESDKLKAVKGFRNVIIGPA
# [1] = molecular target: T3, Tissue transglutaminase (tTG) (Cavia cutleri, UniProt P08587); assay: SPR (BIACORE) detection of calcium binding to immobilized tissue transglutaminase
# T3 construct: purchased Sigma
# T3 sequence (P08587 1-690): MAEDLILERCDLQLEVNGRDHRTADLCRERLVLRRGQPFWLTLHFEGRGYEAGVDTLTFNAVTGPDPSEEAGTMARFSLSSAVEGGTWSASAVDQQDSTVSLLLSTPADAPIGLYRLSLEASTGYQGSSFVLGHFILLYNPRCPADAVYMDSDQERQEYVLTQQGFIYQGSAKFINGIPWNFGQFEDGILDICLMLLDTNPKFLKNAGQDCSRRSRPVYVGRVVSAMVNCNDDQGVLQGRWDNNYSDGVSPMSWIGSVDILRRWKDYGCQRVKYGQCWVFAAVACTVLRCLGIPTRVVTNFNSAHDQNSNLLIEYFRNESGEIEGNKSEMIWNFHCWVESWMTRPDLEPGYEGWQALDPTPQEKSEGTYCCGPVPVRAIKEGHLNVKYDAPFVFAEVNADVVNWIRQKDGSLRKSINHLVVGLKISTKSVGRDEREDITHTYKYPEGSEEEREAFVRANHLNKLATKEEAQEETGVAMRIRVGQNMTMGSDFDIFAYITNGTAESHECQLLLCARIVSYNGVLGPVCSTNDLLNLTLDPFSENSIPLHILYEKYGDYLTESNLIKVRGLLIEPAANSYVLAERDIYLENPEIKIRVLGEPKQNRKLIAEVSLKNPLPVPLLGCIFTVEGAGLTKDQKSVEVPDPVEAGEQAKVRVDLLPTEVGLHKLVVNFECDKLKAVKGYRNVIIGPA
# Method: Tissue transglutaminase (tTG) was obtained from Sigma and prepared at 1.3 mg/mL at pH 4.5 in 10 mM NaOAc. A surface bearing 2500 RU of tTG was prepared using standard EDC/NHS coupling chemistry and was used for all experiments. Ethanolamine (1.0 M, pH 8.0) was used to quench unreacted esters. Calcium chloride was prepared in dH2O at the desired concentrations. Injections were 20 μL at a flow rate of 10 μL/min (2 minute contact time). Report points were collected at 100 seconds post injection. Report points from injections over a blank surface were subtracted. Typical injections over the blank control surface gave minimal (<5 RU) signals, but were subtracted nonetheless. Injections were randomized relative to concentration. Data points were discarded for data collected during obvious anomalies, such as air bubbles. Running buffer was HBS-EP (BIACORE) without calcium supplementation. Calcium was removed from transglutaminase by injection of 5 mM EDTA pH 8.0. After EDTA injection the surface was allowed to stabilize for 300 seconds before additional calcium injections.
# [2] = molecular target: T4, Bovine brain calmodulin (CaM) (Bos taurus, UniProt P62157); assay: SPR (BIACORE) detection of calcium binding to immobilized calmodulin
# T4 construct: Bovine brain calmodulin (CaM) was obtained from Calbiochem; purchased Calbiochem; host or cells: bovine brain
# Method: Bovine brain calmodulin (CaM) was obtained from Calbiochem and immobilized onto carboxymethyl dextran gold surfaces using standard BIACORE EDC/NHS coupling chemistry. HBS-EP was used as an eluent. CaM was injected at 0.5 mg/mL in 10 mM sodium acetate, pH 4.0 (54 minute injection). This procedure immobilized approximately 480 RU of calmodulin. During the immobilizations, the flow rate was 5 μL/min. For some experiments, the BIACORE™ 3000 was used. For others, a BIACORE™ Upgrade was used. In general, injections were run at a flow rate of 5 or 10 μL/min, in HBP-EP buffer. Varying concentrations of CaCl2 in HBS-EP (3.5-50 mM) were injected on the CaM and blank surfaces.
# [3] = molecular target: T5, Glucose/Galactose Binding Protein (GGBP) (Escherichia coli, UniProt P0AEE5); assay: SPR (BIACORE) response of saccharides injected over immobilized GGBP surface; details: surface bearing 2000 RU of GGBP; blank subtracted
# T5 construct: made in house
# Method: Glucose/Galactose Binding Protein (GGBP) was prepared from osmotic shock lysates and coupled to the CM5 chip surface at 20 μM at pH 4.5 in 10 mM NaOAc using standard NHS/EDC procedures. Ethanolamine (1.0 M, pH 8.0) was used to quench unreacted esters and was also found to be effective at removing non-covalently adsorbed protein from the chip surface. Buffer flow was maintained overnight to remove additional non-covalently bound GGBP from the surface before ligand injections were performed. A surface bearing 2000 RU of GGBP was used for experiments. Ligands were prepared in dH2O at the desired concentrations. Injections were 20 μL at a flow rate of 10 μL/min (2 minute contact time). Report points were collected at 100 seconds post injection. Report points from injections over a blank surface were subtracted. Typical injections over the blank control surface gave minimal (<5 RU) signals, but were subtracted nonetheless. Ligand injections were repeated 3-5 times and the order of injection was reversed periodically. Data points were discarded for data collected during obvious anomolies, such as air bubbles. Remaining data was subjected to Q tests and error represents single standard deviations. A single set of sugar solutions was used for injection over the control and test surfaces. Running buffer was HBS-EP (BIACORE) supplemented with 5 mM CaCl2. Bound GGBP ligands were removed either by injection of 100 mM α-methyl mannoside in 10 mM NaOAc pH 4.5 or by 500-1000 seconds of running buffer wash.
# T5 sequence (P0AEE5 24-332 limits assumed): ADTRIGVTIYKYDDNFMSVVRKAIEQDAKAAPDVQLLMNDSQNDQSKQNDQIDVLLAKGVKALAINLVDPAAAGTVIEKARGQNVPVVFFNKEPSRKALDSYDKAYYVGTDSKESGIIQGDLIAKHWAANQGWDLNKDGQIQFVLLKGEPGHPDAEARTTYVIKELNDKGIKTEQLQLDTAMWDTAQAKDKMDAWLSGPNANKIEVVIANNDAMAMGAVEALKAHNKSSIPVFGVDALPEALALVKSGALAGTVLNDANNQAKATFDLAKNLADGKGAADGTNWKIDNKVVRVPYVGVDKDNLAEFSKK
compound,measurement,setting,value
OC[C@H]1O[C@H](O[C@H]2[C@H](O)[C@@H](O)C(O)O[C@@H]2CO)[C@H](O)[C@@H](O)[C@@H]1O (mixture of isomers) [maltose],change in RUs on injection over the MBP surface,MBP,reproducible net decrease in RUs
"[Ca+2].[Cl-].[Cl-] [calcium, Calcium chloride]",Kd,tTG,~1000 µM
same,change in SPR response on calcium binding to tTG,"[1]; SPR, immobilized tTG",positive change in response
same,EC50,"[1]; surface bearing 2500 RU of tTG, running buffer without calcium, read-out: half-maximal response of tTG",500 µM
same,signal over the CaM surface during injection,"[2]; 50 mM CaCl2, blank surface gave 1502 RU",1350 RU
same,change in SPR signal on CaM surface relative to blank surface,"[2]; 3.5-50 mM CaCl2 in HBS-EP, approximately 480 RU of calmodulin",reduction in signal
OC[C@H]1O[C@H](O[C@H]2[C@H](O)[C@@H](O)[C@@H](O[C@H]3[C@H](O)[C@@H](O)[C@@H](O[C@H]4[C@H](O)[C@@H](O)C(O)O[C@@H]4CO)O[C@@H]3CO)O[C@@H]2CO)[C@H](O)[C@@H](O)[C@@H]1O (stereo partly drawn) [maltotetraose],response in relative RU on injection over the GGBP surface,[3],negligible or slightly positive increase in relative RU
cyclodextrins,response in relative RU on injection over the GGBP surface,[3],negligible or slightly positive increase in relative RU
maltotriose,response in relative RU on injection over the GGBP surface,[3],negligible or slightly positive increase in relative RU
